Literature values in patent US20230001221A1, “Methods of Treating Cancer with Alternating Electric Fields, Checkpoint Inhibitors, and Combination Chemotherapy” (Novocure GmbH, priority 2021, published 2023).

Experiments:
[1] = system: human and murine pancreatic cancer cell lines; details: in-vitro, TTFields combined with the chemotherapy
tumor growth = details: in-vivo, TTFields added to the chemotherapy

SMILES | cytotoxicity when combined with TTFields [1] | inhibition of tumor growth (tumor growth)
CCc1c2c(nc3ccc(OC(=O)N4CCC(N5CCCCC5)CC4)cc13)-c1cc3c(c(=O)n1C2)COC(=O)[C@]3(O)CC [irinotecan] | enhanced cytotoxicity | –
Nc1ccn([C@@H]2O[C@H](CO)[C@@H](O)C2(F)F)c(=O)n1 [gemcitabine] | enhanced cytotoxicity | significant inhibition of tumor growth
O=c1[nH]cc(F)c(=O)[nH]1 [5-FU, fluorouracil] | – | significant inhibition of tumor growth
